“And” between values parts separate entries of the source, which are not always exact repeats. Equal values may be shown once.
Assays:
[1] = Liquid; for mass density: 293.15 K, 101.33 kPa, Vibrating tube method; for vapor or sublimation pressure: Ebulliometric method (Recirculating still)
[2] = refractive index (Na D-line) (dimensionless); details: 293.15 K; 101.33 kPa; Liquid; Standard Abbe refractometry

CC#N [acetonitrile]
Details | mass density [kg/m3] | refractive index
[1] | 782 | –
[2] | – | 1.3425

[1]
Details | vapor or sublimation pressure
307.22 K | 18.08 kPa
311.3 K | 21.45 kPa
314.05 K | 24 kPa
316.73 K | 26.73 kPa
320.8 K | 31.35 kPa
323.52 K | 34.82 kPa
325.8 K | 37.88 kPa
328.95 K | 42.59 kPa
330.5 K | 45.06 kPa
333.02 K | 49.34 kPa
335.2 K | 53.31 kPa
338.45 K | 59.68 kPa
341.17 K | 65.47 kPa
343.43 K | 70.59 kPa
346.6 K | 78.43 kPa
350.67 K | 89.46 kPa
354.75 K | 101.64 kPa and 101.3 kPa

C[S+](C)[O-] [dimethyl sulfoxide]
Details | mass density [kg/m3] | refractive index
[1] | 1101 | –
[2] | – | 1.4751

[1]
Details | vapor or sublimation pressure
401.95 K | 15.28 kPa
405.11 K | 17.11 kPa
408.75 K | 19.42 kPa
411.45 K | 21.32 kPa
414.6 K | 23.72 kPa
419.36 K | 27.76 kPa
421.15 K | 29.41 kPa
424.1 K | 32.35 kPa
430.45 K | 39.43 kPa
433.59 K | 43.43 kPa
436.75 K | 47.75 kPa
439.92 K | 52.42 kPa
442.85 K | 57.05 kPa
447.83 K | 65.75 kPa
455.74 K | 81.72 kPa
463.43 K | 101.3 kPa
463.45 K | 100.76 kPa and 101.3 kPa

O [water]
[1]
Details | vapor or sublimation pressure
320.37 K | 10.74 kPa
324.33 K | 13.09 kPa
326.63 K | 14.66 kPa
328.29 K | 15.86 kPa
333.57 K | 20.33 kPa
340.16 K | 27.37 kPa
343.85 K | 32.16 kPa
345.44 K | 34.4 kPa
347.83 K | 38.07 kPa
349.4 K | 40.62 kPa
351.8 K | 44.82 kPa
354.68 K | 50.37 kPa
358.64 K | 58.91 kPa
361.08 K | 64.72 kPa
362.59 K | 68.63 kPa
367.87 K | 83.63 kPa
373.15 K | 101.31 kPa and 101.3 kPa

Details | refractive index
[2] | 1.3312
